According to patent US6465663B2, “O- or S-substituted tetrahydronaphthalene derivatives having retinoid and/or retinoid antagonist-like biological activity” (Allergan, Inc., priority 1996, dated 2002):

Legend:
[1] = molecular target: T1, RARα (Homo sapiens, UniProt P10276); experiment: Ligand binding assay
T1 sequence (P10276 1-462): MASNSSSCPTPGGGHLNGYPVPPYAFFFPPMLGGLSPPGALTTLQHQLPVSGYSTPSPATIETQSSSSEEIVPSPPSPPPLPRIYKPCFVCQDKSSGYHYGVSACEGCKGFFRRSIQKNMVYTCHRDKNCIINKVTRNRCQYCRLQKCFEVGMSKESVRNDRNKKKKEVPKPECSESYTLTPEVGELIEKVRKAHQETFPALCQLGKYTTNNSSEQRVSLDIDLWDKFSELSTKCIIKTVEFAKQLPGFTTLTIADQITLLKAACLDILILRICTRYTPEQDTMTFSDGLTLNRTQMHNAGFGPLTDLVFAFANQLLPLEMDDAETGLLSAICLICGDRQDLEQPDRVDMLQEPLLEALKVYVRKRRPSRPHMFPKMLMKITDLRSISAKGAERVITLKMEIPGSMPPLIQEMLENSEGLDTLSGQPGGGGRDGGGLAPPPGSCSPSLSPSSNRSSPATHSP
Excerpt: (§1) Other assays described below, measure the ability of the compounds of the present invention to bind to, and/or activate various retinoid receptor subtypes. When in these assays a compound binds to a given receptor subtype and activates the transcription of a reporter gene through that subtype, then the compound is considered an agonist of that receptor subtype. […] In the below described assays the ability of the compounds to bind to RARα, RARβ, RARγ, RXRα, RXRβ and RXRΓ receptors, and the ability or inability of the compounds to activate transcription of a reporter gene through these receptor subtypes can be tested.
(§2) A holoreceptor transactivation assay and a ligand binding assay which measure the antagonist/agonist like activity of the compounds of the invention, or their ability to bind to the several retinoid receptor subtypes, respectively, are described in published PCT Application No. WO WO93/11755 (particularly on pages 30-33 and 37-41) published on Jun. 24, 1993, the specification of which is also incorporated herein by reference. A description of the holoreceptor transactivation assay is also provided below.
(§3) CV1 cells (5,000 cells/well) were transfected with an RAR reporter plasmid MTV-TREp-LUC (50 ng) along with one of the RAR expression vectors (10 ng) in an automated 96-well format by the calcium phosphate procedure of Heyman et al. Cell 68, 397-406, (1992). For RXRα and RXRγ transactivation assays, an RXR-responsive reporter plasmid CRBPII-tk-LUC (50 ng) along with the appropriate RXR expression vectors (10 ng) was used substantially as described by Heyman et al. above, and Allegretto et al. J. Biol. Chem. 268, 26625-26633. For RXRβ transactivation assays, an RXR-responsive reporter plasmid CPRE-tk-LUC ([…]) along with RXRβ expression vector ([…]) was used as described in above. These reporters contain DRI elements from human CRBPII and certain DRI elements from promoter, respectively. (see Mangelsdorf et al. The Retinoids: Biology, Chemistry and Medicine, pp 319-349, Raven Press Ltd., New York and Heyman et al., cited above) (1, 8). A β-galactosidase (50 ng) expression vector was used as an internal control in the transfections to normalize for variations in transfection efficiency. The cells were transfected in triplicate for 6 hours, followed by incubation with retinoids for 36 hours, and the extracts were assayed for luciferase and β-galactosidase activities. The detailed experimental procedure for holoreceptor transactivations has been described in Heyman et al. above, and Allegretto et al. cited above. The results obtained in this assay are expressed in EC50 numbers, as they are also in the chimeric receptor transactivation assay. The Heyman et al. Cell 68, 397-406, Allegretto et al. J. Biol. Chem. 268, 26625-26633, and Mangelsdorf et al. The Retinoids: Biology, Chemistry and Medicine, pp 319-349, Raven Press Ltd., New York, are expressly incorporated herein by reference. The results of ligand binding assay are expressed in Kd numbers. (See Cheng et al. Biochemical Pharmacology Vol. 22 pp 3099-3108, expressly incorporated herein by reference.)

[2] = molecular target: T2, RARβ (Homo sapiens, UniProt P10826); experiment: Ligand binding assay
T2 sequence (P10826 1-455): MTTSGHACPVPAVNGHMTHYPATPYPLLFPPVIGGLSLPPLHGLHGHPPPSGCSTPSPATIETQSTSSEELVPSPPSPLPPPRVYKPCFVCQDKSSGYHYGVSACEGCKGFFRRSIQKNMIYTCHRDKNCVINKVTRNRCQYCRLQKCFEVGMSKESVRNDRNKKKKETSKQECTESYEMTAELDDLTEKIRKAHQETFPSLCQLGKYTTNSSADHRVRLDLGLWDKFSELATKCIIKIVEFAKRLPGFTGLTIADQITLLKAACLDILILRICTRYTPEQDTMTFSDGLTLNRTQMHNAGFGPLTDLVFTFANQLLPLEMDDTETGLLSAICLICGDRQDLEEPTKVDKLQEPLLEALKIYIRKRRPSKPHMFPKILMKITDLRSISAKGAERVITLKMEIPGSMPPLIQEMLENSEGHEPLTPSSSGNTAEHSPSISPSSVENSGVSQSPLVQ
Excerpt: as §1, §2, §3

[3] = molecular target: T3, RARγ (Homo sapiens, UniProt P13631); experiment: Ligand binding assay
T3 sequence (P13631 1-454): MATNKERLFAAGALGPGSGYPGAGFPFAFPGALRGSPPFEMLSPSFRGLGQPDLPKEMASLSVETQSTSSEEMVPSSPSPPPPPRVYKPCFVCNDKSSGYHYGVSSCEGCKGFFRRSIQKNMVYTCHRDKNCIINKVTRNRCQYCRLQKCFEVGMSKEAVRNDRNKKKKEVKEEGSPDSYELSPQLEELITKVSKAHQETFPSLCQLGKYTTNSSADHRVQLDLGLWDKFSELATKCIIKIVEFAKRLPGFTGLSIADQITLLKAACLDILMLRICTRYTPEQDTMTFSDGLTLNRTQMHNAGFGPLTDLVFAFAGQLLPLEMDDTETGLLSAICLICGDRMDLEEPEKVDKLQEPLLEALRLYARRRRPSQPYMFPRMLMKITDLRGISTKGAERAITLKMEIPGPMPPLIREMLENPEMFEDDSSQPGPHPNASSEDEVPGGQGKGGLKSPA
Excerpt: as §1, §2, §3

[4] = tested on: ornithine decarboxylase (ODC); experiment: ODC assay: inhibition of TPA induction of ornithine decarboxylase activity; format: in vivo; conditions: concentration of the test compound which causes 80% inhibition in the ODC assay; cell marked (IC80)
Excerpt: A classic measure of retinoic acid activity involves measuring the effects of retinoic acid on ornithine decarboxylase. […] That reference discloses that ornithine decarboxylase (ODC) activity increased precedent to polyamine biosynthesis. It has been established elsewhere that increases in polyamine synthesis can be correlated or associated with cellular proliferation. Thus, if ODC activity could be inhibited, cell hyperproliferation could be modulated. Although all cases for ODC activity increases are unknown, it is known that 12-0-tetradecanoylphorbol-13-acetate (TPA) induces ODC activity. Retinoic acid inhibits this induction of ODC activity by TPA.

Kd [1] [µM] | Kd [2] [µM] | Kd [3] [µM] | Structure (SMILES) | IC80 [4]
0.077 | 0.302 | 0.375 | CC1(C)CCC(OC2CCCCO2)c2cc(C(=O)Oc3ccc(C(=O)O)cc3)ccc21 (single isomer, unassigned) [Compound E67, 4-[5,6,7,8-tetrahydro-8(S or R)-(2′(S or R)tetrahydropyranoxy)-5,5-dimethyl-2-napthoyloxy]benzoic Acid] | –
0.019 | 0.012 | 0.042 | CCO/N=C1\CCC(C)(C)c2ccc(/C(C)=C/C=C/C(C)=C/C(=O)O)cc21 [Compound C25, 7-[4,4-dimethyl-3,4-dihydro-1(2H)-anti-(O-ethyl oxime)-naphth-7-yl]3,7-dimethyl-hepta-2(E),4(E),6(E)-trienoic Acid] | –
0.235 | 0.2 | 0.53 | CC1(C)CC=C(c2cccs2)c2ccc(C(=O)C=Cc3ccc(C(=O)O)cc3)cc21 [Compound D34, 4-[3-oxo-3-(7,8-dihydro-5-(2-thienyl)-8,8-dimethyl-2-naphthalenyl)-1-propenyl]-benzoic acid] | 4.3 (IC80) nmols
0.036 | 0.035 | 0.455 | CC(C)=C1CCC(C)(C)c2ccc(C(=O)Oc3ccc(C(=O)O)cc3)cc21 [Compound E14] | –
0.192 | 0.378 | > 1 | CC(C)=C1CCC(C)(C)c2ccc(C(=O)Nc3ccc(C(=O)O)cc3)cc21 [Compound E17] | –
0.551 | 0.535 | > 1 | CC1(C)CC=C(S(=O)(=O)c2ccccc2)c2cc(C(=O)Oc3ccc(C(=O)O)cc3)ccc21 [Compound E27] | –
0.394 | 0.531 | 0.901 | CC(C)(C)C1=CCC(C)(C)c2ccc(C(=O)Nc3ccc(C(=O)O)cc3)cc21 [Compound E80, 4-[(5,5-dimethyl-5,6-dihydro-8-(1,1-dimethylethyl)-2-naphthalenyl)carboxamido]-benzoic Acid] | –

The next lines start with the compound.

Structure (SMILES) | Kd [1] [µM] | Kd [2] [µM] | Kd [3] [µM] | IC80 [4]
CC1(C)CCC(=O)c2cc(/C=C/c3ccc(C(=O)O)cc3)ccc21 [Compound A2a, (E)-4-[2-(5,6,7,8-tetrahydro-5,5-dimethyl-8-oxo-2-naphthalenyl)ethenyl]-benzoic acid] | 0.15 | 0.219 | 0.421 | –
CCO/N=C1\CCC(C)(C)c2ccc(/C=C/c3ccc(C(=O)O)cc3)cc21 [Compound A6, (E)-4-[2-(5,5-Dimethyl-5,6,-dihydro-8(7H)-anti-(O-ethyl oxime)-naphthalen-2-yl)ethenyl]-benzoic acid] | 0.125 | 0.036 | 0.127 | –
CC1(C)CC=C(Sc2ccccc2)c2cc(/C=C/c3ccc(C(=O)O)cc3)ccc21 [Compound A18, (E)-4-[2-(5,6-dihydro-5,5-dimethyl-8-(phenylthio)-naphthalen-2-yl)ethenyl] benzoic acid] | 0.538 | 0.193 | 0.162 | –
CC1(C)CCC2(SCCCS2)c2cc(/C=C/c3ccc(C(=O)O)cc3)ccc21 [Compound A24] | 0.283 | 0.092 | 0.259 | –
CCC(CC)=C1CCC(C)(C)c2ccc(/C=C/c3ccc(C(=O)O)cc3)cc21 [Compound A28, (E)-4-[2-(5,6-Dihydro-5,5-dimethyl-8(7H)-(pentyliden-3-yl)-naphthalen-2-yl)ethenyl]benzoic acid] | 0.004 | 0.003 | 0.042 | –
